Assay [1] has as its target full-length MALT1 protein (Strep-MALT1(1-824)-His) (Homo sapiens (Human), UniProt Q9UDY8). Kind of assay: MALT1 Biochemical Protease Assay (Ac-LRSR-AMC substrate). Particulars: 10 nM FL MALT1, 200 μM Ac-LRSR-AMC, 4 h at RT; read-out: MALT1_Biochemical activity (Ac-LRSR-amc) IC50. As for the experimental part: The tetrapeptide LRSR is coupled to AMC (7-amino-4-methylcoumarin) and provides a quenched, fluorescent substrate for the MALT1 protease (SM Biochemicals). […] Test compound concentrations ranged from 30 μM to 0.5 nM using 11 dilution steps (1:3). Background signal was measured from control wells containing assay buffer without enzyme which functions as low control (LC). High control (HC) values were generated using the reaction with enzyme but no compound treatment. Compounds were pre-incubated with MALT1 enzyme for 50 minutes at RT. […] The reaction was subsequently incubated for 4 h at RT and fluorescence was measured.
LC=Median of the low control values
An estimate of the slope of the plot in terms of the Hill coefficient was also obtained. IC50 Calculation:
[formula] With • UB=upper bound • LB=lower bound Used in “Lexis Dose Response Curve Fitting” Version 1.0.

For assay [2], the system named is IL6 secretion by TMD8 ABC-DLBCL cells. The assay is described as follows: Human IL6 Mesoscale assay (TMD-8). Type of assay: cell-based. Particulars: Homo sapiens, TMD8; TMD-8 cells, 24 h. On the procedure: (§1) NFKB signaling regulates the secretion of multiple cytokines, including IL6 and IL10. Secretion of the cytokines IL6 and IL10 by TMD8 or OCI-LY3 ABC-DLBCL cells was measured using a mesoscale assay. Inhibition of NFKB signaling by MALT1 or BTK inhibitors results in a decrease of IL6/10 secretion.
(§2) TMD8 or OCI-LY3 cells were propagated in RPMI-1640 (Sigma Aldrich) supplemented with 10% fetal bovine serum (HyClone), 1 mM sodium pyruvate (Invitrogen), 2 mM L-glutamine (Sigma Aldrich) and 1% PenStrep (Sigma Aldrich). Cell passage number should not exceed 30. Cells should be kept between 0.5-2.5 million cells per mL during culturing and cells should be supplemented every 2-3 days with fresh 50 μM beta-mercaptoenthanol. No beta-mercaptoethanol was used during the mesoscale assay.
(§3) For the Mesoscale assay, 100,000 TMD8 or OCI-LY3 cells were seeded per well into black-colored 96-well plates with clear bottom (Corning #3904) and test compounds were added in 9 dilution steps (1:2) ranging from 15 μM to 58.6 nM (final DMSO concentration 0.3%). DMSO control wells were used to determine the maximum signal (High Control (HC)). Treatment with the BTK inhibitor RN486 in a dose range from 30 nM to 131 pM (9 dilutions of 1:2) served as a positive control for NFKB pathway inhibition and was used to determine the maximum inhibition (Low Control (LC)). Compounds and cells were incubated for 24 h at 37° C. and 5% CO2 (assay volume is 150 μL). After 24 h of incubation 50 μL of the supernatant was transferred to a MSD plate (V-Plex Proinflammation Panel 1 (human) kit, Mesoscale (MSD)) and incubated for 2 h with vigorous shaking (600 rpm) at room temperature. Following incubation, plates were washed 3× with PBS+0.05% Tween-20 and 25 μL detection antibody solution (IL6 & IL10 antibodies in diluent 3 (MSD)) was added per well followed by 2 h of incubation with vigorous shaking (600 rpm) at room temperature. After 3× washes with PBS+0.05% Tween-20, plates were incubated with 150 μL 2× Read Buffer T and read on SECTOR imager.

Assay [3] deals with IL10 secretion by TMD8 ABC-DLBCL cells. The assay is described as follows: Human IL10 Mesoscale assay (TMD-8). Type of assay: cell-based. The settings on record: Homo sapiens, TMD8; TMD-8 cells, 24 h. On the procedure: as §1, §2, §3

IC50 data for 18 compounds are collected here from patent US10954214B2 (Janssen Pharmaceutica NV, priority 2016, dated 2021).

Each structure is given as a SMILES string.

full-length MALT1 protein (Strep-MALT1(1-824)-His), sequence (Q9UDY8 whole entry): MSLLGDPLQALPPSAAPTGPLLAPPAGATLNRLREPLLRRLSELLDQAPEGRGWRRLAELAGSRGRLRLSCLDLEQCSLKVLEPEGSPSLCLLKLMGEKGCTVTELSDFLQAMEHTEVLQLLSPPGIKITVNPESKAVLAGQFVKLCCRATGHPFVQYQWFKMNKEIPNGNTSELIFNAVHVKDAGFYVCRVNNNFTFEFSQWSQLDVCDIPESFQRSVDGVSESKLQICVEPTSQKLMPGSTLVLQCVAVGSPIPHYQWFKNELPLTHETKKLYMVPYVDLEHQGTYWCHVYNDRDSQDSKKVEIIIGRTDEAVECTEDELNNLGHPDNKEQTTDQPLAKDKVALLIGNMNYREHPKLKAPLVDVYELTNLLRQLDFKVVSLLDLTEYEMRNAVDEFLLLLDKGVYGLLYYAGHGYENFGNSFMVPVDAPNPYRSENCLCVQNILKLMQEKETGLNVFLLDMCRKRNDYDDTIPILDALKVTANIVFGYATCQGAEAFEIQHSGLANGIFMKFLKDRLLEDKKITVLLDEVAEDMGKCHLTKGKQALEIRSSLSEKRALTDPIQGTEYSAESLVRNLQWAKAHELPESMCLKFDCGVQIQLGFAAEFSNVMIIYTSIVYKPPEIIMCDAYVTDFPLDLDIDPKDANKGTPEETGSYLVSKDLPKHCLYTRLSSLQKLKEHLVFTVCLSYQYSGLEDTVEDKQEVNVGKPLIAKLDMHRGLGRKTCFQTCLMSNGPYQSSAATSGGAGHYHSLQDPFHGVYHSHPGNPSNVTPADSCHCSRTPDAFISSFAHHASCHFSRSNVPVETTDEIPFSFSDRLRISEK

Consider `Cc1cc(-n2nccn2)c(Cl)cc1NC(=O)c1cnn(-c2cccc3c(=O)[nH]ccc23)c1C(F)(F)F` [Cpd 171, N-(5-chloro-2-methyl-4-(2H-1,2,3-triazol-2-yl)phenyl)-1-(1-oxo-1,2-dihydroisoquinolin-5-yl)-5-(trifluoromethyl)-1H-pyrazole-4-carboxamide], for which the IC50 in assay [1] was 0.071 µM; in assay [2], 0.091 µM; in assay [3], 0.06 µM.

Turning to `Cc1nc(-n2nccn2)c(Br)cc1NC(=O)c1cnn(-c2cccc3c(=O)[nH]ccc23)c1C(F)(F)F` [Cpd 185, N-(5-bromo-2-methyl-6-(2H-1,2,3-triazol-2-yl)pyridin-3-yl)-1-(1-oxo-1,2-dihydroisoquinolin-5-yl)-5-(trifluoromethyl)-1H-pyrazole-4-carboxamide], the IC50 in assay [1] amounted to 0.018 µM; in assay [2], 0.186 µM; in assay [3], 0.162 µM.

For `O=C(Nc1cnc(-n2nccn2)c(Cl)c1)c1cnn(-c2cccc3ncccc23)c1Br` [Cpd 188, 5-Bromo-N-(5-chloro-6-(2H-1,2,3-triazol-2-yl)pyridin-3-yl)-1-(quinolin-5-yl)-1H-pyrazole-4-carboxamide], the IC50 in assay [1] worked out at 0.115 µM; in assay [2], 0.046 µM; in assay [3], 0.05 µM.

As to `Cc1nc(-n2nccn2)c(Cl)cc1NC(=O)c1cnn(-c2ccc(F)c3nccn23)c1C(F)(F)F` [Cpd 203, N-(5-chloro-2-methyl-6-(2H-1,2,3-triazol-2-yl)pyridin-3-yl)-1-(8-fluoroimidazo[1,2-a]pyridin-5-yl)-5-(trifluoromethyl)-1H-pyrazole-4-carboxamide], the figures for the IC50 in assay [1], in assay [2] and in assay [3] were 0.162 µM, 5.62 µM and 2.69 µM, respectively.

Regarding `O=C(Nc1cnc(-n2nccn2)c(Cl)c1)c1cnn(-c2c(F)ccc3nccn23)c1C(F)(F)F` [Cpd 205, N-(5-chloro-6-(2H-1,2,3-triazol-2-yl)pyridin-3-yl)-1-(6-fluoroimidazo[1,2-a]pyridin-5-yl)-5-(trifluoromethyl)-1H-pyrazole-4-carboxamide], the IC50 in assay [1] is 0.195 µM; in assay [2], greater than 15.1 µM; in assay [3] it was 1.91 µM.

Turning to `Cc1cn2c(-n3ncc(C(=O)Nc4ccnc(C(F)(F)F)c4)c3C(F)(F)F)cccc2n1` [Cpd 206, 1-(2-methylimidazo[1,2-a]pyridin-5-yl)-5-(trifluoromethyl)-N-(2-(trifluoromethyl)pyridin-4-yl)-1H-pyrazole-4-carboxamide], the IC50 in assay [1] came to 1.74 µM; in assay [2], 6.17 µM; in assay [3], 3.89 µM.

For `O=C(Nc1ccnc(C(F)(F)F)c1)c1cnn(-c2cccc3nccn23)c1C(F)(F)F` [Cpd 208, 1-(imidazo[1,2-a]pyridin-5-yl)-5-(trifluoromethyl)-N-(2-(trifluoromethyl)pyridin-4-yl)-1H-pyrazole-4-carboxamide], the IC50 in assay [1] is 0.316 µM; in assay [2] it was greater than 15.1 µM; in assay [3], 8.71 µM.

`O=C(Nc1ccnc(C(F)(F)F)c1)c1cnn(-c2ccc(F)c3nccn23)c1C(F)(F)F` [Cpd 209, 1-(8-fluoroimidazo[1,2-a]pyridin-5-yl)-5-(trifluoromethyl)-N-(2-(trifluoromethyl)pyridin-4-yl)-1H-pyrazole-4-carboxamide]: the IC50 in assay [1] was 0.224 µM; in assay [2] it was 1.48 µM; in assay [3], 1.12 µM.

Regarding `Cc1cnc2cccc(-n3ncc(C(=O)Nc4cnc(-n5nccn5)c(Cl)c4)c3C(F)(F)F)n12` [Cpd 211, N-(5-chloro-6-(2H-1,2,3-triazol-2-yl)pyridin-3-yl)-1-(3-methylimidazo[1,2-a]pyridin-5-yl)-5-(trifluoromethyl)-1H-pyrazole-4-carboxamide], the IC50 in assay [1] was 0.035 µM; in assay [2], 1.66 µM; in assay [3], 2.29 µM.

Consider `CN1CCc2ccc(NC(=O)c3cnn(-c4cccc5ncccc45)c3C(F)(F)F)cc2C1=O` [Cpd 212, N-(2-methyl-1-oxo-1,2,3,4-tetrahydroisoquinolin-7-yl)-1-(quinolin-5-yl)-5-(trifluoromethyl)-1H-pyrazole-4-carboxamide], for which the 50% inhibitory concentration (IC50) was 11 µM in assay [1], 1.02 µM in assay [2] and 0.513 µM in assay [3].

As to `CS(=O)(=O)c1cc(NC(=O)c2cnn(-c3cccc4ncccc34)c2C(F)(F)F)ccc1-n1ccnn1` [Cpd 213, N-(3-(methylsulfonyl)-4-(1H-1,2,3-triazol-1-yl)phenyl)-1-(quinolin-5-yl)-5-(trifluoromethyl)-1H-pyrazole-4-carboxamide], the IC50 in assay [1] was 10 µM; in assay [2], greater than 15.1 µM; in assay [3] it was greater than 15.1 µM.

With `CN1C(=O)COc2ccc(NC(=O)c3cnn(-c4cccc5ncccc45)c3C(F)(F)F)cc21` [Cpd 214, N-(4-methyl-3-oxo-3,4-dihydro-2H-benzo[b][1,4]oxazin-6-yl)-1-(quinolin-5-yl)-5-(trifluoromethyl)-1H-pyrazole-4-carboxamide], the figures for the IC50 in assay [1], in assay [2] and in assay [3] were 6.03 µM, 2.04 µM and 2.24 µM, respectively.

As to `CS(=O)(=O)c1cc(NC(=O)c2cnn(-c3cccc4ncccc34)c2C(F)(F)F)ccc1-n1nccn1` [Cpd 215, N-(3-(methylsulfonyl)-4-(2H-1,2,3-triazol-2-yl)phenyl)-1-(quinolin-5-yl)-5-(trifluoromethyl)-1H-pyrazole-4-carboxamide], the IC50 in assay [1] was determined as 5.75 µM; in assay [2], 12.3 µM; in assay [3], 2.09 µM.

Consider `Cn1ccc2ccc(NC(=O)c3cnn(-c4cccc5ncccc45)c3C(F)(F)F)cc2c1=O` [Cpd 216, N-(2-methyl-1-oxo-1,2-dihydroisoquinolin-7-yl)-1-(quinolin-5-yl)-5-(trifluoromethyl)-1H-pyrazole-4-carboxamide], for which the IC50 in assay [1] came to 5.37 µM; in assay [2] it was 0.912 µM; in assay [3], 0.339 µM.

For `O=C1COc2ccc(NC(=O)c3cnn(-c4cccc5ncccc45)c3C(F)(F)F)cc2N1` [Cpd 217, N-(3-oxo-3,4-dihydro-2H-benzo[b][1,4]oxazin-6-yl)-1-(quinolin-5-yl)-5-(trifluoromethyl)-1H-pyrazole-4-carboxamide], the IC50 in assay [1] came out at 4.9 µM; in assay [2], 0.537 µM; in assay [3], 0.269 µM.

Take `Cc1cc(NC(=O)c2cnn(-c3cccc4ncccc34)c2C(F)(F)F)cnc1-n1ccn(C)c1=O` [Cpd 218, N-(5-methyl-6-(3-methyl-2-oxo-2,3-dihydro-1H-imidazol-1-yl)pyridin-3-yl)-1-(quinolin-5-yl)-5-(trifluoromethyl)-1H-pyrazole-4-carboxamide]: the results for the IC50 in assay [1], in assay [2] and in assay [3] were 3.47 µM, 0.174 µM and 0.087 µM, respectively.

`N#Cc1cc(NC(=O)c2cnn(-c3cc(Cl)nc4ccccc34)c2C(F)(F)F)cnc1-n1nccn1` [Cpd 220, 1-(2-chloroquinolin-4-yl)-N-(5-cyano-6-(2H-1,2,3-triazol-2-yl)pyridin-3-yl)-5-(trifluoromethyl)-1H-pyrazole-4-carboxamide]: the IC50 in assay [1] amounted to 2.14 µM; in assay [2] it was 0.851 µM; in assay [3], 0.468 µM.

Turning to `O=C(Nc1cnc(-n2nccn2)c(Cl)c1)c1cnn(-c2ncnc3[nH]ncc23)c1C(F)(F)F` [Cpd 222, N-(5-chloro-6-(2H-1,2,3-triazol-2-yl)pyridin-3-yl)-1-(1H-pyrazolo[3,4-d]pyrimidin-4-yl)-5-(trifluoromethyl)-1H-pyrazole-4-carboxamide], the IC50 in assay [1] amounted to 1.7 µM; in assay [2], 3.31 µM; in assay [3] it was 0.575 µM.
